Measurements reported in patent publication US20260262643A1, “HERBICIDAL BENZOXAZINES” (FMC CORPORATION, priority 2022, published 2026).

Tests used:
[1] = system: oat, wild; assay: Test C preemergence; assay type: in vivo, Avena fatua
Procedure, shortened: (§1)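 Visual injury ratings on a 0–100 scale (100 = complete control) were made against untreated controls 10 days after treatment in the greenhouse. Compounds, formulated with surfactant in non-phytotoxic solvent, were sprayed on soil preemergence or onto one- to two-leaf plants 2–10 cm tall postemergence.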

[2] = system: blackgrass; assay: Test C postemergence; assay type: in vivo, Alopecurus myosuroides; conditions: 10 days, 0 to 100 scale (0 no effect, 100 complete control)
Procedure, shortened: as §1

[3] = system: sedge, umbrella; assay: Test D flooded paddy test; assay type: in vivo, Cyperus difformis; conditions: 250 g ai/ha, applied to paddy water, visual rating after 13 to 14 days, scale 0 to 100 (0 no effect, 100 complete control)
Procedure, shortened: (§2)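 2-leaf plants; flood 3 cm above soil; compound dosed into paddy water; greenhouse 13–14 d; visual rating vs controls, 0–100 (100 = complete control); dash = not tested.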

[4] = system: corn; assay: Test C postemergence; assay type: in vivo, Zea mays; conditions: 10 days, 0 to 100 scale (0 no effect, 100 complete control)
Procedure, shortened: as §1

[5] = system: foxtail, giant; assay: Test C postemergence; assay type: in vivo, Setaria faberi; conditions: 10 days, 0 to 100 scale (0 no effect, 100 complete control)
Procedure, shortened: as §1

[6] = system: blackgrass; assay: Test C preemergence; assay type: in vivo, Alopecurus myosuroides
Procedure, shortened: as §1

[7] = system: ragweed; assay: Test C preemergence; assay type: in vivo, Ambrosia artemisiifolia
Procedure, shortened: as §1

[8] = system: foxtail, giant; assay: Test C preemergence; assay type: in vivo, Setaria faberi
Procedure, shortened: as §1

[9] = system: wheat; assay: Test C preemergence; assay type: in vivo, Triticum aestivum
Procedure, shortened: as §1

[10] = system: wheat; assay: Test C postemergence; assay type: in vivo, Triticum aestivum; conditions: 10 days, 0 to 100 scale (0 no effect, 100 complete control)
Procedure, shortened: as §1

[11] = system: horseweed; assay: Test C postemergence; assay type: in vivo, Erigeron canadensis; conditions: 10 days, 0 to 100 scale (0 no effect, 100 complete control)
Procedure, shortened: as §1

[12] = system: pigweed, palmer; assay: Test C preemergence; assay type: in vivo, Amaranthus palmeri
Procedure, shortened: as §1

[13] = system: ragweed; assay: Test C postemergence; assay type: in vivo, Ambrosia artemisiifolia; conditions: 10 days, 0 to 100 scale (0 no effect, 100 complete control)
Procedure, shortened: as §1

[14] = system: ducksalad; assay: Test D flooded paddy test; assay type: in vivo, Heteranthera limosa; conditions: 250 g ai/ha, applied to paddy water, visual rating after 13 to 14 days, scale 0 to 100 (0 no effect, 100 complete control)
Procedure, shortened: as §2

[15] = system: barnyardgrass; assay: Test C preemergence; assay type: in vivo, Echinochloa crusgalli
Procedure, shortened: as §1

[16] = system: pigweed, palmer; assay: Test C postemergence; assay type: in vivo, Amaranthus palmeri; conditions: 10 days, 0 to 100 scale (0 no effect, 100 complete control)
Procedure, shortened: as §1

[17] = system: oat, wild; assay: Test C postemergence; assay type: in vivo, Avena fatua; conditions: 10 days, 0 to 100 scale (0 no effect, 100 complete control)
Procedure, shortened: as §1

[18] = system: ryegrass, Italian; assay: Test C postemergence; assay type: in vivo, Lolium multiflorum; conditions: 10 days, 0 to 100 scale (0 no effect, 100 complete control)
Procedure, shortened: as §1

[19] = system: rice; assay: Test D flooded paddy test; assay type: in vivo, Oryza sativa; conditions: 250 g ai/ha, applied to paddy water, visual rating after 13 to 14 days, scale 0 to 100 (0 no effect, 100 complete control)
Procedure, shortened: as §2

[20] = system: ryegrass, Italian; assay: Test C preemergence; assay type: in vivo, Lolium multiflorum
Procedure, shortened: as §1

[21] = system: barnyardgrass; assay: Test D flooded paddy test; assay type: in vivo, Echinochloa crus-galli; conditions: 250 g ai/ha, applied to paddy water, visual rating after 13 to 14 days, scale 0 to 100 (0 no effect, 100 complete control)
Procedure, shortened: as §2

[22] = system: soybean; assay: Test C preemergence; assay type: in vivo, Glycine max
Procedure, shortened: as §1

[23] = system: soybean; assay: Test C postemergence; assay type: in vivo, Glycine max; conditions: 10 days, 0 to 100 scale (0 no effect, 100 complete control)
Procedure, shortened: as §1

[24] = system: galium; assay: Test C postemergence; assay type: in vivo, Galium aparine; conditions: 10 days, 0 to 100 scale (0 no effect, 100 complete control)
Procedure, shortened: as §1

[25] = system: barnyardgrass; assay: Test C postemergence; assay type: in vivo, Echinochloa crusgalli; conditions: 10 days, 0 to 100 scale (0 no effect, 100 complete control)
Procedure, shortened: as §1

[26] = system: kochia; assay: Test C preemergence; assay type: in vivo, Bassia scoparia
Procedure, shortened: as §1

[27] = system: corn; assay: Test C preemergence; assay type: in vivo, Zea mays
Procedure, shortened: as §1

[28] = system: kochia; assay: Test C postemergence; assay type: in vivo, Bassia scoparia; conditions: 10 days, 0 to 100 scale (0 no effect, 100 complete control)
Procedure, shortened: as §1

[29] = 500 g ai/ha, preemergence, 0 to 100 scale (0 no effect, 100 complete control)
[30] = Preemergence, 125 g ai/ha, 0 to 100 scale, 0 no effect, 100 complete control

SMILES: CCc1cc(C(=O)N2C[C@H](C)Oc3c(Cl)cccc32)cc(-n2cncn2)c1 [Compound 332]
- Oat, Wild plant response rating [1, 29]: 30
- Plant response rating, Oat, Wild [1, 30]: 30
- Plant response rating, Blackgrass ([2]; 500 g ai/ha, postemergence): 70
- Plant response rating, Blackgrass ([2]; Postemergence, 125 g ai/ha): 30
- Plant response rating, Sedge, Umbrella (Flood) [3]: 0
- Plant response rating, Corn ([4]; 500 g ai/ha, postemergence): 30
- Plant response rating, Corn ([4]; Postemergence, 125 g ai/ha): 30
- Plant response rating, Foxtail, Giant ([5]; 500 g ai/ha, postemergence): 90
- Plant response rating, Foxtail, Giant ([5]; Postemergence, 125 g ai/ha): 40
- Blackgrass plant response rating [6, 29]: 80
- Plant response rating, Blackgrass [6, 30]: 80
- Ragweed plant response rating [7, 29]: 0
- Plant response rating, Ragweed [7, 30]: 0
- Foxtail, Giant plant response rating [8, 29]: 100
- Plant response rating, Foxtail, Giant [8, 30]: 70
- Wheat plant response rating [9, 29]: 0
- Plant response rating, Wheat [9, 30]: 0
- Plant response rating, Wheat ([10]; 500 g ai/ha, postemergence): 20
- Plant response rating, Wheat ([10]; Postemergence, 125 g ai/ha): 20
- Plant response rating, Horseweed ([11]; 500 g ai/ha, postemergence): 0
- Plant response rating, Horseweed ([11]; Postemergence, 125 g ai/ha): 0
- Pigweed, Palmer plant response rating [12, 29]: 100
- Plant response rating, Pigweed, Palmer [12, 30]: 20
- Plant response rating, Ragweed ([13]; 500 g ai/ha, postemergence): 20
- Plant response rating, Ragweed ([13]; Postemergence, 125 g ai/ha): 0
- Plant response rating, Ducksalad (Flood) [14]: 0
- Barnyardgrass plant response rating [15, 29]: 90
- Plant response rating, Barnyardgrass [15, 30]: 50
- Plant response rating, Pigweed, Palmer ([16]; 500 g ai/ha, postemergence): 70
- Plant response rating, Pigweed, Palmer ([16]; Postemergence, 125 g ai/ha): 70
- Plant response rating, Oat, Wild ([17]; 500 g ai/ha, postemergence): 30
- Plant response rating, Oat, Wild ([17]; Postemergence, 125 g ai/ha): 10
- Plant response rating, Ryegrass, Italian ([18]; 500 g ai/ha, postemergence): 70
- Plant response rating, Ryegrass, Italian ([18]; Postemergence, 125 g ai/ha): 60
- Plant response rating, Rice (Flood) [19]: 0
- Ryegrass, Italian plant response rating [20, 29]: 90
- Plant response rating, Ryegrass, Italian [20, 30]: 60
- Plant response rating, Barnyardgrass (Flood) [21]: 0
- Soybean plant response rating [22, 29]: 0
- Plant response rating, Soybean [22, 30]: 0
- Plant response rating, Soybean ([23]; 500 g ai/ha, postemergence): 100
- Plant response rating, Soybean ([23]; Postemergence, 125 g ai/ha): 90
- Plant response rating, Galium ([24]; 500 g ai/ha, postemergence): 100
- Plant response rating, Galium ([24]; Postemergence, 125 g ai/ha): 70
- Plant response rating, Barnyardgrass ([25]; 500 g ai/ha, postemergence): 70
- Plant response rating, Barnyardgrass ([25]; Postemergence, 125 g ai/ha): 40
- Kochia plant response rating [26, 29]: 50
- Plant response rating, Kochia [26, 30]: 0
- Corn plant response rating [27, 29]: 20
- Plant response rating, Corn [27, 30]: 20
- Plant response rating, Kochia ([28]; 500 g ai/ha, postemergence): 60
- Plant response rating, Kochia ([28]; Postemergence, 125 g ai/ha): 10
